Like-named read-outs stand apart in the source and are kept apart here.
Key:
in vivo = conditions: mouse, po
HIV (LAV 1) = experiment: microbe, parasite or virus in culture; conditions: for Viable cell count / Viral antigen-positive cell percentage: 4-day addition; for viability at 1 µg/mL / viability at 2.5 µg/mL / viability at 5 µg/mL / viability at 10 µg/mL: Human immunodeficiency virus 1, CCRF-CEM
Method in brief: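 CEM cells were infected with HIV LAV 1 at MOI 0.05 and cultured with test substance at 10, 5, 2.5 or 1 mcg/ml, with medium exchanged periodically up to 30 days. Viable cell count and percentage were measured by trypan blue, and antigen-positive cells by immunofluorescence with anti-HIV antiserum, at 4–30 days. Values are means of two wells.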

CCn1cc(C(=O)O)c(=O)c2cc(F)c(N3CCNCC3)cc21 [NFLX, 1-ethyl-6-fluoro-1,4-dihydro-4-oxo-7-(1-piperazinyl)-3-quinolinecarboxylic acid]
LD50 (in vivo): ≥ 4000 mg/kg | Viable cell count (HIV (LAV 1); 1 mcg/ml, after 4 days): 230 × 10⁴ cells/ml | Viral antigen-positive cell percentage (HIV (LAV 1); 1 mcg/ml, after 4 days): 88% | Viable cell count (HIV (LAV 1); 1 mcg/ml, after 7 days): 52 × 10⁴ cells/ml | Viral antigen-positive cell percentage (HIV (LAV 1); 1 mcg/ml, after 7 days): 75% | Viable cell count (HIV (LAV 1); 1 mcg/ml, after 10 days): 26 × 10⁴ cells/ml | Viable cell count (HIV (LAV 1); 1 mcg/ml, after 20 days): 0 × 10⁴ cells/ml | Viable cell count (HIV (LAV 1); 1 mcg/ml, after 30 days): 0 × 10⁴ cells/ml | Viable cell count (HIV (LAV 1); 2.5 mcg/ml, after 4 days): 240 × 10⁴ cells/ml | Viral antigen-positive cell percentage (HIV (LAV 1); 2.5 mcg/ml, after 4 days): 93% | Viable cell count (HIV (LAV 1); 2.5 mcg/ml, after 7 days): 59 × 10⁴ cells/ml | Viral antigen-positive cell percentage (HIV (LAV 1); 2.5 mcg/ml, after 7 days): 55% | Viable cell count (HIV (LAV 1); 2.5 mcg/ml, after 10 days): 40 × 10⁴ cells/ml | Viable cell count (HIV (LAV 1); 2.5 mcg/ml, after 20 days): 2 × 10⁴ cells/ml | Viable cell count (HIV (LAV 1); 2.5 mcg/ml, after 30 days): 70 × 10⁴ cells/ml | Viral antigen-positive cell percentage (HIV (LAV 1); 2.5 mcg/ml, after 30 days): ≦1% | Viable cell count (HIV (LAV 1); 5 mcg/ml, after 4 days): 230 × 10⁴ cells/ml | Viral antigen-positive cell percentage (HIV (LAV 1); 5 mcg/ml, after 4 days): 83% | Viable cell count (HIV (LAV 1); 5 mcg/ml, after 7 days): 84 × 10⁴ cells/ml | Viral antigen-positive cell percentage (HIV (LAV 1); 5 mcg/ml, after 7 days): 65% | Viable cell count (HIV (LAV 1); 5 mcg/ml, after 10 days): 86 × 10⁴ cells/ml | Viable cell count (HIV (LAV 1); 5 mcg/ml, after 20 days): 28 × 10⁴ cells/ml | Viable cell count (HIV (LAV 1); 5 mcg/ml, after 30 days): 330 × 10⁴ cells/ml | Viral antigen-positive cell percentage (HIV (LAV 1); 5 mcg/ml, after 30 days): ≦1% | Viable cell count (HIV (LAV 1); 10 mcg/ml, after 4 days): 180 × 10⁴ cells/ml | Viral antigen-positive cell percentage (HIV (LAV 1); 10 mcg/ml, after 4 days): 92% | Viable cell count (HIV (LAV 1); 10 mcg/ml, after 7 days): 60 × 10⁴ cells/ml | Viral antigen-positive cell percentage (HIV (LAV 1); 10 mcg/ml, after 7 days): 63% | Viable cell count (HIV (LAV 1); 10 mcg/ml, after 10 days): 250 × 10⁴ cells/ml | Viral antigen-positive cell percentage (HIV (LAV 1); 10 mcg/ml, after 10 days): 50% | Viable cell count (HIV (LAV 1); 10 mcg/ml, after 20 days): 370 × 10⁴ cells/ml | Viral antigen-positive cell percentage (HIV (LAV 1); 10 mcg/ml, after 20 days): 4% | Viable cell count (HIV (LAV 1); 10 mcg/ml, after 30 days): 400 × 10⁴ cells/ml | Viral antigen-positive cell percentage (HIV (LAV 1); 10 mcg/ml, after 30 days): ≦1% | viability at 1 µg/mL (HIV (LAV 1); 96 h, read-out: Viable cell percentage, 1 mcg/ml, 4-day addition, after 4 days): 94% | viability at 2.5 µg/mL (HIV (LAV 1); 96 h, read-out: Viable cell percentage, 2.5 mcg/ml, 4-day addition, after 4 days): 94% | viability at 5 µg/mL (HIV (LAV 1); 96 h, read-out: Viable cell percentage, 5 mcg/ml, 4-day addition, after 4 days): 94% | viability at 10 µg/mL (HIV (LAV 1); 96 h, read-out: Viable cell percentage, 10 mcg/ml, 4-day addition, after 4 days): 92% | viability at 1 µg/mL (HIV (LAV 1); read-out: Viable cell percentage, 1 mcg/ml, 4-day addition, after 7 days): 59% | viability at 1 µg/mL (HIV (LAV 1); read-out: Viable cell percentage, 1 mcg/ml, 4-day addition, after 10 days): 30% | viability at 1 µg/mL (HIV (LAV 1); read-out: Viable cell percentage, 1 mcg/ml, 4-day addition, after 20 days): 0% | viability at 1 µg/mL (HIV (LAV 1); read-out: Viable cell percentage, 1 mcg/ml, 4-day addition, after 30 days): 0% | viability at 2.5 µg/mL (HIV (LAV 1); read-out: Viable cell percentage, 2.5 mcg/ml, 4-day addition, after 7 days): 67% | viability at 2.5 µg/mL (HIV (LAV 1); read-out: Viable cell percentage, 2.5 mcg/ml, 4-day addition, after 10 days): 47% | viability at 2.5 µg/mL (HIV (LAV 1); read-out: Viable cell percentage, 2.5 mcg/ml, 4-day addition, after 20 days): 33% | viability at 2.5 µg/mL (HIV (LAV 1); read-out: Viable cell percentage, 2.5 mcg/ml, 4-day addition, after 30 days): 96% | viability at 5 µg/mL (HIV (LAV 1); read-out: Viable cell percentage, 5 mcg/ml, 4-day addition, after 7 days): 67% | viability at 5 µg/mL (HIV (LAV 1); read-out: Viable cell percentage, 5 mcg/ml, 4-day addition, after 10 days): 61% | viability at 5 µg/mL (HIV (LAV 1); read-out: Viable cell percentage, 5 mcg/ml, 4-day addition, after 20 days): 81% | viability at 5 µg/mL (HIV (LAV 1); read-out: Viable cell percentage, 5 mcg/ml, 4-day addition, after 30 days): 95% | viability at 10 µg/mL (HIV (LAV 1); read-out: Viable cell percentage, 10 mcg/ml, 4-day addition, after 7 days): 71% | viability at 10 µg/mL (HIV (LAV 1); read-out: Viable cell percentage, 10 mcg/ml, 4-day addition, after 10 days): 91% | viability at 10 µg/mL (HIV (LAV 1); read-out: Viable cell percentage, 10 mcg/ml, 4-day addition, after 20 days): 97% | viability at 10 µg/mL (HIV (LAV 1); read-out: Viable cell percentage, 10 mcg/ml, 4-day addition, after 30 days): 94%
